Values joined by “and” are separate entries in the source; they are usually repeats but may differ in a detail not shown here. Identical values can stand only once.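 The compound was tested at five concentrations on cells cultured in 96-well plates, with a 48-hour exposure period. Abbreviation: GI50, concentration required for 50% inhibition of growth. At the TGI there is no net growth.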
What was measured:
Experiment in all cases: NCI anticancer screen, dose series, 48 h
[1] = system: HOP-62 NSCLC
[2] = system: HOP-92 NSCLC
[3] = system: K-562 leukemia
[4] = system: M14 melanoma
[5] = system: NCI-H23 lung
[6] = system: OVCAR-3 ovarian
[7] = system: OVCAR-4 ovarian
[8] = system: SK-MEL-5 melanoma
[9] = system: UACC-257 melanoma
[10] = system: MDA-MB-435

| SMILES | TGI [1] [µM] | TGI [2] | TGI [3] [µM] | TGI [4] | TGI [5] | TGI [6] [µM] | TGI [7] | TGI [8] | TGI [9] [µM] | GI50 [1] [µM] | GI50 [2] [µM] | GI50 [3] [µM] | GI50 [4] | GI50 [10] | TGI [10] | GI50 [5] [µM] | GI50 [6] [µM] | GI50 [8] | GI50 [9] [µM] | GI50 [7] [µM] |
| --- | --- | --- | --- | --- | --- | --- | --- | --- | --- | --- | --- | --- | --- | --- | --- | --- | --- | --- | --- | --- |
| CN(C)CCC(/C=C/c1ccccc1)=N\Nc1ccc(Cl)c(Cl)c1 | 13.3 | 4.4 µM | 6.03 | 7.22 µM | 8.93 µM | 16.8 | 10.8 µM | 8.96 µM | 9.77 | – | – | – | – | – | – | – | – | – | – | – |
| N#CC1=C(N)NC(=S)NC1c1ccc(-c2ccc(-c3nc4ccccc4o3)cc2)s1 (stereo unspecified) | 20.1 | > 50 µM | 15.5 | 30.3 µM | 27.4 µM | 37.2 | – | 18.3 µM | 26.8 | 9.33 | 9.84 | 4.7 | 12.6 µM | 16.5 µM | 48.5 µM | 12 | 10.7 | 9.14 µM | 11.2 | – |
| Cc1ccccc1NC(=O)/C=N/O | > 100 | – | > 100 | > 100 µM | > 100 µM | > 100 | > 100 µM | > 100 µM | > 100 | – | – | – | – | – | – | – | – | – | – | – |
| COC(=O)c1cccc2c3ccccc3c3ccccc3c12 | > 100 | – | 79.3 | > 100 µM | 54.7 µM | 56 | > 100 µM | > 100 µM | > 100 | – | – | – | – | – | – | – | – | – | – | – |
| Cc1cccc(C)c1NC(=O)CCC/C(CC(=O)c1ccc(F)cc1)=N\NC(=O)C(=O)NN | – | – | > 100 | > 100 µM | > 100 µM | > 100 | > 100 µM | > 100 µM | > 100 | – | – | – | – | – | – | – | – | – | – | – |
| OB(O)c1ccccc1C#Cc1ccccc1B(O)O | 83.9 | > 100 µM | > 100 | 57.6 µM | 90.9 µM | 68.6 | – | 31.9 µM | 17.3 | – | – | – | – | – | 49 µM | – | – | – | – | – |
| CC1=C(C(=O)NCc2ccccc2)C(c2ccc(Cl)c(Cl)c2)C(C(=O)NCc2ccccc2)=C(C)N1 | > 100 | > 100 µM | > 100 | > 100 µM | > 100 µM | > 100 | > 100 µM | > 100 µM | > 100 | – | – | – | – | – | – | – | – | – | – | – |
| Cc1ccc(S(=O)(=O)NC(=O)NCCc2ccccc2)cc1 | > 100 | > 100 µM | > 100 | > 100 µM | > 100 µM | > 100 | > 100 µM | > 100 µM | 88.2 | – | – | – | – | – | – | – | – | – | – | – |
| CCCCCCCCOCC(O)CO (stereo unspecified) | > 100 | > 100 µM | > 100 | > 100 µM | > 100 µM | > 100 | > 100 µM | > 100 µM | > 100 | – | – | – | – | – | – | – | – | – | – | – |
| COc1cc(Cl)cc(-c2nn(-c3cccc(NC(=O)Nc4cccc(C(F)(F)F)c4)c3)cc2-c2ccncc2)c1 | 13.1 | – | 14.4 | 3.98 µM | 6.69 µM | 4.62 | 38.8 µM | 2.84 µM | 4.65 | 2.81 | – | 0.824 | 1.34 µM | 1.74 µM | 3.82 µM | 1.76 | 0.592 | 1.48 µM | 1.75 | 2.54 |
| COc1ccc(/C(C)=N/NC(=O)CSc2nc3ccccc3c(=O)n2CCc2ccc(S(N)(=O)=O)cc2)cc1 | – | 4 µM | > 100 | 3.75 µM | 5.81 µM | 3.85 | 3.52 µM | 3.06 µM | 5.57 | – | 1.89 | 2.87 | 1.91 µM | – | – | 2.3 | 1.99 | 1.64 µM | 2.39 | 1.77 |
| Nc1ccc(-c2cc(C(=O)Nc3nccs3)[nH]c(=S)n2)cc1 | – | > 100 µM | > 100 | > 100 µM | > 100 µM | > 100 | > 100 µM | > 100 µM | > 100 | – | – | – | – | – | – | – | – | – | – | – |
| CCOC(=O)C(=O)Nc1cc(Cl)c(Cl)cc1Cl | > 100 | > 100 µM | > 100 | > 100 µM | > 100 µM | > 100 | > 100 µM | > 100 µM | > 100 | – | – | – | – | – | – | – | – | – | – | – |
| O=C(O)[C@@H]1OCCOCCO[C@@H](C(=O)O)[C@H](C(=O)O)OCCOCCO[C@H]1C(=O)O | > 100 | > 100 µM | > 100 | > 100 µM | > 100 µM | > 100 | > 100 µM | > 100 µM | > 100 | – | – | – | – | – | – | – | – | – | – | – |
| Nc1ncnc2c1ncn2C1OC(COS(N)(=O)=O)C(O)C1O (stereo unspecified) | – | 0.00619 µM and 0.0611 µM | – | 0.00494 µM and 0.036 µM | 0.00558 µM and 0.0546 µM | – | 0.00718 µM and 0.0357 µM | 0.00336 µM and 0.0321 µM | – | – | – | – | 0.00214 µM and 0.0181 µM | 0.00184 µM and 0.018 µM | 0.00356 µM and 0.0355 µM | – | – | 0.00177 µM and 0.0175 µM | – | 0.00118 |
| CC(C)(C)OC(=O)NCCCCn1c2c(c3ccccc3c1=O)C(=O)c1ccccc1-2 | > 100 | – | > 100 | > 100 µM | 43.4 µM | 23.3 | > 100 µM | – | 71.1 | 28.7 | – | 24.8 | 36.4 µM | 35.3 µM | > 100 µM | 20.8 | 5.42 | – | 29.7 | 47.8 |
| C1OC1CN1CCN(CC2CO2)CC1 (stereo unspecified) | 69.7 | > 100 µM | > 100 | > 100 µM | > 81.2 µM | > 100 | > 100 µM | > 100 µM | > 100 | – | – | – | – | – | – | – | – | – | – | – |
| O=C1CC(c2c(-c3ccccc3)[nH]c3ccccc23)C(=O)N1c1ccccc1 (stereo unspecified) | 94 | – | > 100 | > 100 µM | > 100 µM | > 100 | > 100 µM | > 100 µM | > 100 | – | – | – | – | – | – | – | – | – | – | – |
| CCC/C=C\C=C\C1(NS(=O)(=O)c2ccc(C)cc2)CCC(C(C)(C)C)CC1 (stereo unspecified) | 56.7 | 50.9 µM | 34.2 | 37.1 µM | 55 µM | 21.9 | 49.4 µM | 33.3 µM | 39 | – | – | – | – | – | – | – | – | – | – | – |
| NCCCOc1cc2ccccc2cc1C(=O)Nc1ccc(Cl)cc1OC(=O)c1cc2ccccc2cc1OCCCN | 0.515 | 3.71 µM | – | 1.26 µM | 1.2 µM | 1.43 | 0.306 µM | 2.49 µM | 2.32 | 0.208 | 1.64 | – | 0.321 µM | 0.961 µM | 3.96 µM | 0.387 | 0.612 | 1.23 µM | 1.01 | 0.146 |

Source: PubChem BioAssay (NCI)
